# According to patent US8067435B2, “Nitrogen-containing heterocyclic compounds, their preparation and their use as antibacterial drugs” (AstraZeneca AB, priority 2008, dated 2011):
# Tested on: Pseudomonas aeruginosa (1771 Strain of the wild type)
# Assay: Activity in vitro, method of dilutions in a liquid medium (MIC)
# Type: cell-based
# Conditions: Pseudomonas aeruginosa 1771 wild type; liquid medium dilution; 24 hrs incubation at 37° C.
# Description: Activity in vitro, method of dilutions in a liquid medium: A series of tubes is prepared in which the same amount of sterile nutritive medium is distributed, increasing amounts of the product to be studied are distributed in each tube, and each tube is then sown with a bacterial strain. After incubation for 24 hrs in the oven at 37° C., inhibition of growth is appreciated by trans-illumination, which allows determination of the minimum inhibitory concentrations (MICs) expressed in μg/ml.
# Thus tests are carried out with the products of Examples 1 to 8 in comparison with products of Examples 7, 9, 11 and 45 of application WO 04/052891. […] The activity difference on Pseudomonas aeruginosa between the products of the invention and the closest products from the prior art is located according to the products in a range from 16 to more than 500.
# Activity on Pseudomonas aeruginosa (1771 Strain of the wild type)
row,SMILES,"MIC (μg/mL) 24 h (P, aerug, 1771)"
1,"NC[C@@H]1c2nn(C(N)=O)cc2[C@H]2CN1C(=O)N2OS(=O)(=O)O.O=C([O-])C(F)(F)F.[Na+] (relative stereo) [Ex 1, Sodium trifluoroacetate salt of trans 8-(aminomethyl)-2-carbamoyle-4,8-dihydro-5-(sulfooxy)-4,7-methano-7H-pyrazolo[3,4-e][1,3]diazepin-6(5H)-one]",0.25 µg/mL
2,"CN(C)C(=O)n1cc2c(n1)[C@@H](CN)N1C[C@H]2N(OS(=O)(=O)O)C1=O.O=C([O-])C(F)(F)F.[Na+] (relative stereo) [Ex 2, Sodium trifluoroacetate salt of trans 8-(aminomethyl)-2-dimethylcarbamoyle-4,8-dihydro-5-(sulfooxy)-4,7-methano-7H-pyrazolo[3,4-e][1,3]diazepin-6(5H)-one]",2 µg/mL
3,"CNC(=O)n1cc2c(n1)[C@@H](CN)N1C[C@H]2N(OS(=O)(=O)O)C1=O.O=C([O-])C(F)(F)F.[Na+] (relative stereo) [Ex 3, Sodium trifluoroacetate salt of trans 8-(aminomethyl)-2-methylcarbamoyl-4,8-dihydro-5-(sulfooxy)-4,7-methano-7H-pyrazolo[3,4-e][1,3]diazepin-6(5H)-one]",2 µg/mL
4,"NCCn1ncc2c1[C@@H](CN)N1C[C@H]2N(OS(=O)(=O)O)C1=O.O=C([O-])C(F)(F)F.[Na+] (relative stereo) [Ex 4, Sodium trifluoroacetate salt of trans 8-(aminomethyl)-1-(2-amino-ethyl)-4,8-dihydro-5-(sulfooxy)-4,7-methano-7H-pyrazolo[3,4-e][1,3]diazepin-6(5H)-one]",0.25 µg/mL
5,"NCCn1cc2c(n1)[C@@H](CN)N1C[C@H]2N(OS(=O)(=O)O)C1=O.O=C([O-])C(F)(F)F.[Na+] (relative stereo) [Ex 5, Sodium trifluoroacetate salt of trans 8-(aminomethyl)-2-(2-amino-ethyl)-4,8-dihydro-5-(sulfooxy)-4,7-methano-7H-pyrazolo[3,4-e][1,3]diazepin-6(5H)-one]",0.25 µg/mL
6,"NC[C@@H]1c2nn(-c3ccccn3)cc2[C@H]2CN1C(=O)N2OS(=O)(=O)O.O=C([O-])C(F)(F)F.[Na+] (relative stereo) [Ex 6, Sodium trifluoroacetate salt of trans 8-(aminomethyl)-2-(2-pyridinyl)-4,8-dihydro-5-(sulfooxy)-4,7-methano-7H-pyrazolo[3,4-e][1,3]diazepin-6(5H)-one]",8 µg/mL
7,"NC[C@@H]1c2nn(CC(=O)O)cc2[C@H]2CN1C(=O)N2OS(=O)(=O)O.O=C([O-])C(F)(F)F.[Na+] (relative stereo) [Ex 7, Sodium trifluoroacetate salt of trans-8-(aminomethyl)-5,6-dihydro-6-oxo-5-(sulfooxy)-4H-4,7-methanopyrazolo[3,4-e][1,3]diazepin-2(8H)-acetic acid]",4 µg/mL
8,"NC[C@@H]1c2nn(CC(N)=O)cc2[C@H]2CN1C(=O)N2OS(=O)(=O)O.O=C([O-])C(F)(F)F.[Na+] (relative stereo) [Ex 8, Sodium trifluoroacetate salt of trans-8-(aminomethyl)-5,6-dihydro-6-oxo-5-(sulfooxy)-4H-4,7-methanopyrazolo[3,4-e][1,3]diazepin-2(8H)-acetamide]",0.5 µg/mL

# Same assay, conditions: Pseudomonas aeruginosa 1771 wild type; liquid medium dilution; 24 hrs incubation at 37° C.; read-out: MIC (μg/mL) 24 h (P, aerug, 1771)
row,MIC,SMILES
1,1 µg/mL,"CC(C)(O/N=C(\C(=O)N[C@@H]1C(=O)N2C(C(=O)[O-])=C(C[n+]3ccccc3)CS[C@H]12)c1csc(N)n1)C(=O)O [CAZ, Ceftazidime, reference compound]"
2,1 µg/mL,"C[C@@H](O)[C@H]1C(=O)N2C(C(=O)O)=C(SCCN=CN)C[C@H]12 [IMP, Imipenem, reference compound]"
